In ChEMBL document CHEMBL1201862, “PubChem BioAssay data set” (2004):
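Growth conditions: 96-well plates. Treatment: test compound, 48 hours, 5 concentrations. Analysis: linear interpolation between bracketing concentrations; unreached endpoints set to highest concentration. Here, GI50 denotes the concentration required for 50% inhibition of growth.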 Activity calls are given as the source filed them. No stated cut-off is given here; in the data, active = GI50 up to about 1.1 µM and inactive = higher.

Key:
Assay in all cases: NCI tumour cell line growth inhibition, 48 h
[1] = system: MDA-N
[2] = system: NCI/ADR-RES
[3] = system: DU-145
[4] = system: KM12
[5] = system: K562
[6] = system: Malme-3M
[7] = system: UACC-257
[8] = system: CCRF-CEM
[9] = system: MDA-MB-435
[10] = system: SN12C
[11] = system: MDA-MB-231
[12] = system: EKVX
[13] = system: 786-0
[14] = system: SF-539
[15] = system: IGROV-1
[16] = system: BT-549
[17] = system: HL-60
[18] = system: NCI-H226
[19] = system: RPMI-8226
[20] = system: UACC-62

Row | Compound | GI50 [1] | GI50 [2] | GI50 [3] | GI50 [4] | GI50 [5] | GI50 [6] | GI50 [7] | GI50 [8] | GI50 [9] | GI50 [10] | GI50 [11] | GI50 [12] | GI50 [13] | GI50 [14] | GI50 [15] | GI50 [16] | GI50 [17] | GI50 [18] | GI50 [19] | GI50 [20]
1 | O=C(Nc1nc(C23CC4CC(CC(C4)C2)C3)cs1)c1cc2ccccc2oc1=O | > 100 µM (inactive) | > 100 µM (inactive) | > 100 µM (inactive) | > 100 µM (inactive) | > 100 µM (inactive) | > 100 µM (inactive) | > 100 µM (inactive) | > 100 µM (inactive) | > 100 µM (inactive) | > 100 µM (inactive) | > 100 µM (inactive) | > 100 µM (inactive) | > 100 µM (inactive) | > 100 µM (inactive) | > 100 µM (inactive) | > 100 µM (inactive) | > 100 µM (inactive) | > 100 µM (inactive) | > 100 µM (inactive) | –
2 | CC1=C(C(=O)N(C(C)C)C(C)C)CC(C(=O)N(C(C)C)C(C)C)=C(C)N1 | > 100 µM (inactive) | > 100 µM (inactive) | > 100 µM (inactive) | > 100 µM (inactive) | > 100 µM (inactive) | – | > 100 µM (inactive) | > 100 µM (inactive) | 79.8 µM (inactive) | > 100 µM (inactive) | 54.1 µM (inactive) | > 100 µM (inactive) | > 100 µM (inactive) | > 100 µM (inactive) | > 100 µM (inactive) | > 100 µM (inactive) | > 100 µM (inactive) | > 100 µM (inactive) | > 100 µM (inactive) | > 100 µM (inactive)
3 | CC1(C)N=C(N)N=C(N)N1c1cccc(CSc2ccccc2)c1 | 0.037 µM (active) | > 100 µM (inactive) | 0.592 µM (active) | 0.718 µM (active) | 0.774 µM (active) | 8.89 µM (inactive) | 3.85 µM (inactive) | – | 0.0813 µM (active) | 0.0838 µM (active) | > 100 µM (inactive) | 23 µM (inactive) | 0.0929 µM (active) | 0.461 µM (active) | 0.0301 µM (active) | 15.9 µM (inactive) | < 0.01 µM (active) | 0.916 µM (active) | 0.944 µM (active) | 0.192 µM (active)
4 | NC(=O)/C=C/NC(=O)/C=N\O | > 100 µM (inactive) | > 100 µM (inactive) | > 100 µM (inactive) | > 100 µM (inactive) | > 100 µM (inactive) | > 100 µM (inactive) | > 100 µM (inactive) | > 100 µM (inactive) | > 100 µM (inactive) | > 100 µM (inactive) | > 100 µM (inactive) | > 100 µM (inactive) | > 100 µM (inactive) | > 100 µM (inactive) | > 100 µM (inactive) | > 100 µM (inactive) | > 100 µM (inactive) | > 100 µM (inactive) | > 100 µM (inactive) | > 100 µM (inactive)
5 | C/C(Cl)=N\OC(=O)Nc1ccc([N+](=O)[O-])cc1 | 10.8 µM (inactive) | 17.6 µM (inactive) | 17.6 µM (inactive) | 15.5 µM (inactive) | 2.02 µM (inactive) | 3.01 µM (inactive) | 16.8 µM (inactive) | 2.77 µM (inactive) | 18.8 µM (inactive) | 12.4 µM (inactive) | 18.7 µM (inactive) | 19.3 µM (inactive) | 5.92 µM (inactive) | 16.3 µM (inactive) | 17.5 µM (inactive) | 23 µM (inactive) | 1.82 µM (inactive) | > 100 µM (inactive) | 2.36 µM (inactive) | 22.2 µM (inactive)
6 | C[C@]12CC[C@H]3[C@@H](CC[C@]4(O)C[C@@H](O)CC[C@]34/C=N/O)[C@@]1(O)CC[C@@H]2C1=COC(=O)C1 | 0.191 µM (active) | 0.141 µM (active) | 0.0637 µM (active) | 0.318 µM (active) | 0.12 µM (active) | 0.169 µM (active) | 0.299 µM (active) | – | 0.257 µM (active) | 0.251 µM (active) | 0.589 µM (active) | 0.1 µM (active) | 0.102 µM (active) | 0.104 µM (active) | 0.136 µM (active) | 0.0675 µM (active) | 0.131 µM (active) | 0.391 µM (active) | 0.258 µM (active) | 0.303 µM (active)
7 | CCCCCCCCCCCC[C@H](O)[C@H]1CC[C@H]([C@H](O)CCCC[C@H](O)CCCCC[C@@H](O)CC2=C[C@H](C)OC2=O)O1 | 2.37 µM (inactive) | 1.61 µM (inactive) | 9.42 µM (inactive) | 3.51 µM (inactive) | 1.23 µM (inactive) | 17.9 µM (inactive) | 0.407 µM (active) | 1.71 µM (inactive) | 1.4 µM (inactive) | 5.83 µM (inactive) | 1.88 µM (inactive) | 1.6 µM (inactive) | 5.01 µM (inactive) | 15.3 µM (inactive) | 3.98 µM (inactive) | 0.0026 µM (active) | 2.15 µM (inactive) | 2.84 µM (inactive) | > 10 µM (inactive) | 1.19 µM (inactive)
